Patent US10617748B2, “Immunogenic control of tumours and tumour cells” (LIFE SCIENCES RESEARCH PARTNERS VZW, priority 2008, dated 2020)
Peptide text beside a SMILES is read from it.

How the values were obtained:
[1] = test system: APCs presenting the natural or modified MAGE-3 T-cell epitope; experiment: Cytotoxic CD4+ T cells elicited by in vivo immunisation; apoptosis (annexin V, Facs) of peptide-loaded APC in co-culture, MAGE-3 epitope; set-up: species or system C57BI/6 mice; conditions: 25 μg peptide, 3 footpath injections in CFA/IFA; splenic CD4+ T cells co-cultured 24 h with APC loaded with SEQ ID NO:1 or SEQ ID NO:2 (5 μg/mL)
Description: The sequence of the (natural) T-cell epitope corresponds to amino acids 258 to 266 of MAGE-3, namely: YRQVPGSDP (SEQ ID NO:1).
(§1) Finally, cells are analysed by Facs analysis.

[2] = test system: APCs presenting the natural or modified survivin T-cell epitope; experiment: Cytotoxic CD4+ T cells elicited by in vivo immunisation; apoptosis (annexin V, Facs) of peptide-loaded APC in co-culture, survivin epitope; set-up: species or system C57BI/6 mice; conditions: 25 μg peptide, 3 footpath injections in CFA/IFA; splenic CD4+ T cells co-cultured 24 h with APC loaded with SEQ ID NO:5 or SEQ ID NO:6 (5 μg/mL)
Description: The sequence of the peptide corresponds to amino acids 61 to 69 of survivin, namely: FKELEGWEP (SEQ ID NO:5).
as §1

[3] = test system: APCs presenting the natural or modified Epstein-Barr LMP2 T-cell epitope; experiment: Cytotoxic CD4+ T cells elicited by in vivo immunisation; apoptosis (annexin V, Facs) of peptide-loaded APC in co-culture, Epstein-Barr LMP2 epitope; set-up: species or system BALB/c mice; conditions: 25 μg peptide, 3 footpath injections in CFA/IFA; splenic CD4+ T cells co-cultured 24 h with APC loaded with SEQ ID NO:7 or SEQ ID NO:8 (5 μg/mL)
Description: The sequence of the peptide corresponds to amino acids 167 to 175 of LMP2, namely: VASSYAAAQ (SEQ ID NO:7).
Spleen adherent cells prepared from naïve BALB/c mice are used as antigen-presenting cells (APC).
as §1

CC(C)[C@H](NC(=O)[C@H](CCC(N)=O)NC(=O)[C@H](CCCNC(=N)N)NC(=O)[C@H](Cc1ccc(O)cc1)NC(=O)[C@H](CS)NC(=O)CNC(=O)[C@H](Cc1c[nH]cn1)NC(=O)[C@@H](N)CS)C(=O)N1CCC[C@H]1C(=O)NCC(=O)N[C@@H](CO)C(=O)N[C@@H](CC(=O)O)C(=O)N1CCC[C@H]1C(=O)O [SEQ ID NO:2, CHGCYRQVPGSDP] (H-CHGCYRQVPGSDP-OH)
elicitation of CD4+ T cells with cytotoxic properties towards APCs [1]: can elicit CD4+ T cells with cytotoxic properties

CC(C)C[C@H](NC(=O)[C@H](CCC(=O)O)NC(=O)[C@H](CCCCN)NC(=O)[C@H](Cc1ccccc1)NC(=O)[C@H](CS)NC(=O)CNC(=O)[C@H](Cc1c[nH]cn1)NC(=O)[C@@H](N)CS)C(=O)N[C@@H](CCC(=O)O)C(=O)NCC(=O)N[C@@H](Cc1c[nH]c2ccccc12)C(=O)N[C@@H](CCC(=O)O)C(=O)N1CCC[C@H]1C(=O)O [SEQ ID NO:6, CHGCFKELEGWEP] (H-CHGCFKELEGWEP-OH)
elicitation of CD4+ T cells with cytotoxic properties towards APCs [2]: can elicit CD4+ T cells with cytotoxic properties

CC(C)[C@H](NC(=O)[C@H](CS)NC(=O)CNC(=O)[C@H](Cc1c[nH]cn1)NC(=O)[C@@H](N)CS)C(=O)N[C@@H](C)C(=O)N[C@@H](CO)C(=O)N[C@@H](CO)C(=O)N[C@@H](Cc1ccc(O)cc1)C(=O)N[C@@H](C)C(=O)N[C@@H](C)C(=O)N[C@@H](C)C(=O)N[C@@H](CCC(N)=O)C(=O)O [SEQ ID NO:8, CHGCVASSYAAAQ] (H-CHGCVASSYAAAQ-OH)
elicitation of CD4+ T cells with cytotoxic properties towards APCs [3]: can elicit CD4+ T cells with cytotoxic properties
